Patent US20070232492A1, “Herbicidal Composition” (Ishihara Sangyo Kaisha, LTD., priority 2004, published 2007)
Read-outs that look alike come from different tables or passages of the source.

Legend:
Type in all cases: in vivo
[1] = tested on: barnyardgrass (Echinochloa oryzicola vasing); experiment: Growth inhibition of barnyardgrass in paddy soil pots, application under submerged condition, visual rating (observed value) and Colby expected value; details: for inhibition at 500 g/ha: 5 g/a; for inhibition at 1000 g/ha: 10 g/a
Source text: (§1) When the herbicidal activity in a case where two active ingredients are combined, is larger than the simple sum of the respective herbicidal activities of the two active ingredients (the expected activity), it is called a synergistic effect. The activity expected by the combination of two active ingredients can be calculated as follows (Colby S. R., “Weed”, vol. 15, p. 20-22, 1967). E=p+q−(p×q÷100) where p: growth inhibition rate when treated with x (g/a) of herbicide X,
(§2) q: growth inhibition rate when treated with y (g/a) of herbicide Y,
(§3) E: growth inhibition rate expected when treated with x (g/a) of herbicide X and y (g/a) of herbicide Y.
(§4) Namely, when the actual growth inhibition rate (observed value) is larger than the growth inhibition rate by the above calculation (expected value), the activity by the combination can be regarded as showing a synergistic effect.
Paddy field soil was put into a 1/10,000 are pot, and seeds of barnyardgrass (Echinochloa oryzicola vasing) were sown and left to stand under an irrigated condition with a water depth of 3.5 cm. When barnyardgrass reached 2.0 to 2.5 leaf stage, wettable powders of compound A2 and compound (B1.1) were, respectively, diluted with water and applied under submerged condition so that the active ingredients became the prescribed amounts, respectively. The state of growth was visually observed 21 days after application, and the growth inhibition rate (%) evaluated in accordance with the following evaluation standard (observed value) and the growth inhibition rate (%) calculated by the above-mentioned Colby method (expected value) are shown in Table 1.
(§5) Growth inhibition rate (%)=0% (equivalent to the non-treated area) to 100% (complete kill)
(§6) Paddy field soil was put into a 1/10,000 are pot, and seeds of barnyardgrass (Echinochloa oryzicola vasing) were sown and left to stand under an irrigated condition with a water depth of 3.5 cm. When barnyardgrass reached 2.0 to 2.5 leaf stage, wettable powders of compound A2 and compound (B2.1) were, respectively, diluted with water and applied under submerged condition so that the active ingredients became the prescribed amounts, respectively. The state of growth was visually observed 21 days after application, and evaluation and calculation were carried out in the same manner as in the above Test Example 1.
as §6, with “leaf stage, a wettable powder” for “leaf stage, wettable powders”, “a wettable powder of compound” for “stage, wettable powders of compound”, “A2 and an emulsifiable concentrate of compound (B3.1)” for “A2 and compound (B2.1)”, “of compound (B3.1) were, respectively,” for “and compound (B2.1) were, respectively,”
as §6, with “(B4.1)” for “(B2.1)”
Paddy field soil was put into a 1/10,000 are pot, and seeds of barnyardgrass (Echinochloa oryzicola vasing) were sown and left to stand under an irrigated condition with a water depth of 3.5 cm. […]

[2] = tested on: flatsedge (Cyperus serotinus); experiment: Growth inhibition of flatsedge (planted tubers) in paddy soil pots, application under submerged condition, visual rating and Colby expected value
Source text: as §1, §2, §3, §4, §5
(§7) Paddy field soil was put into a 1/10,000 are pot, and tubers of flatsedge (Cyperus serotinus) were planted and left to stand under an irrigated condition with a water depth of 3.5 cm. When flatsedge reached 2.8 to 3.2 leaf stage, wettable powders of compound A2 and compound (B1.2) were, respectively, diluted with water and applied under submerged condition so that the active ingredients became the prescribed amounts, respectively. The state of growth was visually observed 29 days after application, and evaluation and calculation were carried out in the same manner as in the above Test Example 1.
Paddy field soil was put into a 1/3,000 are pot, and tubers of flatsedge (Cyperus serotinus) were planted and left to stand under an irrigated condition with a water depth of 3.5 cm. When flatsedge reached 4 leaf stage, a wettable powder of compound A2 and an emulsifiable concentrate of compound C4 were, respectively, diluted with water and applied under submerged condition so that the active ingredients became the prescribed amounts, respectively. The state of growth was visually observed 21 days after application, and the growth inhibition rate (%) evaluated in the same manner as in the above Test Example 1 (observed value) and the growth inhibition rate (%) calculated by the above-mentioned Colby method (expected value) are shown in Table 32.
as §7, with “2.5” for “2.8”, “3.0” for “3.2”, “A2, compound (D2.3)” for “A2”, “(B4.1)” for “(B1.2)”, “30” for “29”, “evaluated” for “evaluation and calculation were carried out”
as §7, with “2.5” for “2.8”, “3.0” for “3.2”, “A2, compound (D2.3)” for “A2”, “(B6.1)” for “(B1.2)”, “30” for “29”, “evaluated” for “evaluation and calculation were carried out”
Paddy field soil was put into a 1/10,000 are pot, and tubers of flatsedge (Cyperus serotinus) were planted and left to stand under an irrigated condition with a water depth of 3.5 cm. When flatsedge reached 2.5 to 3.0 leaf stage, wettable powders of compound A2, compound (D2.3) and compound (B8.1) were, respectively, diluted with water and applied under submerged condition so that the active ingredients became the prescribed amounts, respectively. […]

[3] = tested on: Japanese bulrush (Scirpus juncoides); experiment: Growth inhibition of Japanese bulrush in paddy soil pots, application under submerged condition, visual rating and Colby expected value; details: 2 leaf stage, 19 days after application
Source text: as §1, §2, §3, §4, §5
(§8) Paddy field soil was put into a 1/10,000 are pot, and seeds of Japanese bulrush (Scirpus juncoides) were sown and left to stand under an irrigated condition with a water depth of 3.5 cm. When Japanese bulrush reached 2.3 to 2.6 leaf stage, a wettable powder of compound A2 and granules of compound (B7.1) were, respectively, diluted with water and applied under submerged condition so that the active ingredients became the prescribed amounts, respectively. The state of growth was visually observed 10 days after application, and evaluation and calculation were carried out in the same manner as in the above Test Example 1.
as §8, with “an emulsifiable concentrate” for “granules”, “(B3.1)” for “(B7.1)”
(§9) Paddy field soil was put into a 1/10,000 are pot, and seeds of Japanese bulrush (Scirpus juncoides) were sown and left to stand under an irrigated condition with a water depth of 3.5 cm. When Japanese bulrush reached 2 leaf stage, wettable powders of compound A2, C2 and C4 and granules of compound C6 were, respectively, diluted with water and applied under submerged condition so that the active ingredients became the prescribed amounts, respectively.
Paddy field soil was put into a 1/10,000 are pot, and seeds of Japanese bulrush (Scirpus juncoides) were sown and left to stand under an irrigated condition with a water depth of 3.5 cm. When Japanese bulrush reached 2 leaf stage, wettable powders of compound A2, C2 and C4 and granules of compound C6 were, respectively, diluted with water and applied under submerged condition so that the active ingredients became the prescribed amounts, respectively. The state of growth was visually observed 19 days after application, and the growth inhibition rate (%) evaluated in the same manner as in the above Test Example 1 (observed value) and the growth inhibition rate (%) calculated by the above-mentioned Colby method (expected value) are shown in Tables 36, 37 and 38.
as §9, with “3” for “2”, “A2” for “A2, C2”, “and” for “and C4 and granules of”, “(D2.2)” for “C6”, “respectively. […]” for “respectively.”

[4] = Echinochloa oryzicola, soil, 336 h, 2.8 to 3.4 leaf stage, 14 days after application, Test Examples 66-72, read-out: Growth inhibition rate (%) Observed
[5] = Echinochloa oryzicola, soil, 504 h, 2.0 to 2.5 leaf stage, 21 days after application, read-out: Growth inhibition rate (%) Observed

`COc1ccsc1CN(C(=O)CCl)c1c(C)cccc1C` [Compound (B3.2), thenylchlor] was tested, and the inhibition at 93.8 g/ha ([1]; Echinochloa oryzicola, soil, 504 h, 0.938 g/a, 2.8 to 3.2 leaf stage, 21 days after application, read-out: Growth inhibition rate (%) Observed) was 5%, the inhibition at 94 g/ha ([1]; Echinochloa oryzicola, soil, 504 h, 0.94 g/a, 2.8 to 3.2 leaf stage, 21 days after application, Test Examples 39-43, read-out: Growth inhibition rate (%) Observed) was 0% and the inhibition at 187.5 g/ha ([1]; Echinochloa oryzicola, soil, 504 h, 1.875 g/a, 2.8 to 3.2 leaf stage, 21 days after application, read-out: Growth inhibition rate (%) Observed) was 27%. For the same compound, the inhibition at 188 g/ha ([1]; Echinochloa oryzicola, soil, 504 h, 1.88 g/a, 2.8 to 3.2 leaf stage, 21 days after application, Test Examples 39-43, read-out: Growth inhibition rate (%) Observed) was 15% and the inhibition at 250 g/ha ([2]; Cyperus serotinus, soil, 720 h, 2.5 g/a, 2.5 to 3.0 leaf stage, 30 days after application, Test Examples 46-60, read-out: Growth inhibition rate (%) Observed) was 35%.
`CS(=O)(=O)c1ccc(C(=O)C2=C(Sc3ccccc3)C3CCC(C3)C2=O)c(Cl)c1` (stereo not drawn) [Compound (B4.1), benzobicyclon] was tested, and the inhibition at 100 g/ha ([1]; Echinochloa oryzicola, soil, 504 h, 1 g/a, 2.0 to 2.5 leaf stage, 21 days after application, read-out: Growth inhibition rate (%) Observed) was 13%, the inhibition at 200 g/ha ([1]; Echinochloa oryzicola, soil, 504 h, 2 g/a, 2.0 to 2.5 leaf stage, 21 days after application, read-out: Growth inhibition rate (%) Observed) was 33% and the inhibition at 200 g/ha ([2]; Cyperus serotinus, soil, 720 h, 2 g/a, 2.5 to 3.0 leaf stage, 30 days after application, Test Examples 46-60, read-out: Growth inhibition rate (%) Observed) was 60%.
`CC(C)(NC(=O)C(Br)C(C)(C)C)c1ccccc1` (stereo not drawn) [Compound (B6.1), bromobutide] showed an inhibition at 500 g/ha [1, 4] of 10%, an inhibition at 1000 g/ha [1, 4] of 10% and an inhibition at 500 g/ha [1, 5] of 0%. It also gave an inhibition at 1000 g/ha [1, 5] of 10% and an inhibition at 1000 g/ha ([2]; Cyperus serotinus, soil, 720 h, read-out: Growth inhibition rate (%) Observed) of 35%.
In the case of `CCN(CC)C(=O)n1cnc(S(=O)(=O)c2c(C)cc(C)cc2C)n1` [Compound (B9.1), cafenstrole], the “Growth inhibition rate (%) Observed” value ([1]; 0.525 g/a, 2.8 to 3.2 leaf stage, 21 days after application) is reported as 2%, the “Growth inhibition rate (%) Observed” value ([1]; 0.788 g/a, 2.1 to 3.2 leaf stage, 21 days after application) is reported as 57% and the “Growth inhibition rate (%) Observed” value ([1]; 0.788 g/a, 2.8 to 3.2 leaf stage, 19 days after application, Test Examples 62-65) is reported as 10%. For the same compound, the “Growth inhibition rate (%) Observed” value ([1]; 1.05 g/a, 2.8 to 3.2 leaf stage, 21 days after application) was 10%, the “Growth inhibition rate (%) Observed” value ([1]; 1.58 g/a, 2.8 to 3.2 leaf stage, 19 days after application, Test Examples 62-65) was 10% and the “Growth inhibition rate (%) Observed” value ([2]; 2.1 g/a, 2.5 to 3.0 leaf stage, 30 days after application, Test Examples 46-60) was 35%.
Compound `CCC1(CC2(c3cccc(Cl)c3)CO2)C(=O)c2ccccc2C1=O` (stereo not drawn) [Compound (B10.1), indanofan] has an inhibition at 37.5 g/ha ([1]; Echinochloa oryzicola, soil, 504 h, 0.375 g/a, 2.8 to 3.2 leaf stage, 21 days after application, read-out: Growth inhibition rate (%) Observed) of 0%, an inhibition at 75 g/ha ([1]; Echinochloa oryzicola, soil, 504 h, 0.75 g/a, 2.8 to 3.2 leaf stage, 21 days after application, read-out: Growth inhibition rate (%) Observed) of 13% and an inhibition at 56.3 g/ha ([1]; Echinochloa oryzicola, soil, 528 h, 0.563 g/a, 2.1 to 3.2 leaf stage, 22 days after application, read-out: Growth inhibition rate (%) Observed) of 40%. It also gave an inhibition at 150 g/ha ([2]; Cyperus serotinus, soil, 720 h, 1.5 g/a, 2.5 to 3.0 leaf stage, 30 days after application, Test Examples 46-60, read-out: Growth inhibition rate (%) Observed) of 25%.
In the case of `CCOC(=O)CCCOc1ccc(Cl)cc1C` [Compound C4, MCPB ethyl], the “Growth inhibition rate (%) Observed” value ([3]; 0.5 g/a, Test Example 33) is reported as 10%, the “Growth inhibition rate (%) Observed” value ([3]; 1.0 g/a, Test Example 33) is reported as 27% and the “Growth inhibition rate (%) Observed” value ([3]; 1.5 g/a, Test Example 34) is reported as 20%. The “Growth inhibition rate (%) Observed” value ([3]; 2.0 g/a, Test Example 33) was 55%, the “Growth inhibition rate (%) Observed” value ([3]; 10 g/a, Test Example 34) was 68% and the “Growth inhibition rate (%) Observed” value ([2]; 2.0 g/a, 4 leaf stage, 21 days after application) was 33%. The “Growth inhibition rate (%) Observed” value ([2]; 2.4 g/a, 4 leaf stage, 21 days after application) was 57%.
